Test results as given in patent US10233182B2, “Substituted spirocyclic inhibitors of autotaxin” (X-Rx, Inc., priority 2014, dated 2019).
Counter-ions that a name gives are not always drawn.

Target: Autotaxin (Homo sapiens (Human), UniProt Q13822)
Assay: Autotaxin LPC Cascade Assay
Type: biochemical
Details: Autotaxin 5 nM, LPC 100 μM, choline oxidase/HRP/Ampliflu Red fluorescence read-out, 2% DMSO, RT; read-out: IC50 ATX Activity
How it was run: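 Choline liberated from LPC by autotaxin during 1 h, after a 10-min RT compound preincubation, was converted through choline oxidase/HRP to a fluorescent Ampliflu Red product.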

| SMILES | IC50 |
| --- | --- |
| CC[C@@H](C)[C@@H](NC(=O)c1cccc(C)c1F)C(=O)N1CCC2(CC1)C(=O)N(C)C(=O)N2c1ccccc1 [Example 4, 2-Fluoro-3-methyl-N-((2R,3R)-3-methyl-1-(3-methyl-2,4-dioxo-1-phenyl-1,3,8-triazaspiro[4.5]decan-8-yl)-1-oxopentan-2-yl)benzamide] | < 500 nM |
| CC(C)[C@@H](NC(=O)c1cc(OC(F)F)ccc1F)C(=O)N1CCC2(CC1)C(=O)N(C)C(=O)N2c1ccc(C(=O)O)cc1 [Example 166, (R)-4-(8-(2-(5-(Difluoromethoxy)-2-fluorobenzamido)-3-methylbutanoyl)-3-methyl-2,4-dioxo-1,3,8-triazaspiro[4.5]decan-1-yl)benzoic Acid] | < 500 nM |
| CCc1ccc(F)c(C(=O)N[C@@H](C(=O)N2CCC3(CC2)C(=O)N(C)CN3c2ccc(C(=O)O)cc2)C(C)C)c1 [Example 152, (R)-4-(8-(2-(5-Ethyl-2-fluorobenzamido)-3-methylbutanoyl)-3-methyl-4-oxo-1,3,8-triazaspiro[4.5]decan-1-yl)benzoic Acid] | < 500 nM |
| CC(C)[C@@H](NC(=O)c1cccc(C2CC2)c1)C(=O)N1CCC2(CC1)C(=O)N(C)CN2c1ccccc1 [Example 142, (R)-3-Cyclopropyl-N-(3-methyl-1-(3-methyl-4-oxo-1-phenyl-1,3,8-triazaspiro[4.5]decan-8-yl)-1-oxobutan-2-yl)benzamide] | < 500 nM |
| CC(C)[C@@H](NC(=O)c1cc(Cl)cc(C(F)(F)F)c1)C(=O)N1CCC2(CC1)C(=O)N(C)C(=O)N2c1ccc2[nH]ncc2c1 [Example 60, (R)—N-(1-(1-(1H-Indazol-5-yl)-3-methyl-2,4-dioxo-1,3,8-triazaspiro[4.5]decan-8-yl)-3-methyl-1-oxobutan-2-yl)-3-chloro-5-(trifluoromethyl)benzamide] | < 500 nM |
| CC(C)[C@@H](NC(=O)c1ccc(Cl)c(Cl)c1)C(=O)N1CCC2(CC1)C(=O)N(C)C(=O)N2c1ccccc1 [Example 35, (R)-3,4-Dichloro-N-(3-methyl-1-(3-methyl-2,4-dioxo-1-phenyl-1,3,8-triazaspiro[4.5]decan-8-yl)-1-oxobutan-2-yl)benzamide] | ≥ 1000 nM |
| CC(C)[C@@H](NC(=O)c1cc(C(F)(F)F)ccc1F)C(=O)N1CCC2(CC1)C(=O)N(C)CN2c1ccc2nccn2c1 [Example 206, (R)-2-Fluoro-N-(1-(1-(imidazo[1,2-a]pyridin-6-yl)-3-methyl-4-oxo-1,3,8-triazaspiro[4.5]decan-8-yl)-3-methyl-1-oxobutan-2-yl)-5-(trifluoromethyl)benzamide trifluoroacetic Acid Salt] | < 500 nM |
| CCc1ccc(F)c(C(=O)N[C@@H](C(=O)N2CCC3(CC2)C(=O)N(C)CN3c2ccc(S(C)(=O)=O)cc2)C(C)C)c1 [Example 200, (R)-5-Ethyl-2-fluoro-N-(3-methyl-1-(3-methyl-1-(4-(methylsulfonyl)phenyl)-4-oxo-1,3,8-triazaspiro[4.5]decan-8-yl)-1-oxobutan-2-yl)benzamide] | < 500 nM |
| CC(C)[C@@H](NC(=O)c1cc(C(F)(F)F)ccc1F)C(=O)N1CCC2(CC1)C(=O)N(C)C(=O)N2c1ccc(C(=O)O)cc1 [Example 223, (R)-4-(8-(2-(2-Fluoro-5-(trifluoromethyl)benzamido)-3-methylbutanoyl)-3-methyl-2,4-dioxo-1,3,8-triazaspiro[4.5]decan-1-yl)benzoic Acid] | < 500 nM |
| CC(C)[C@@H](NC(=O)c1cc(C(F)(F)F)ccc1F)C(=O)N1CCC2(CC1)C(=O)N(C)CN2c1ccc(NC2COC2)cc1 [Example 218, (R)-2-Fluoro-N-(3-methyl-1-(3-methyl-1-(4-(oxetan-3-ylamino)phenyl)-4-oxo-1,3,8-triazaspiro[4.5]decan-8-yl)-1-oxobutan-2-yl)-5-(trifluoromethyl)benzamide] | < 500 nM |
| Cc1cc(F)cc(C(=O)N[C@@H](C(=O)N2CCC3(CC2)C(=O)N(CC(=O)O)CN3c2ccccc2)C(C)C)c1 [Example 176, (R)-2-(8-(2-(3-Fluoro-5-methylbenzamido)-3-methylbutanoyl)-4-oxo-1-phenyl-1,3,8-triazaspiro[4.5]decan-3-yl)acetic Acid] | 500 to 1000 nM |
| CC(C)[C@@H](NC(=O)c1cc(C(F)(F)F)ccc1F)C(=O)N1CCC2(CC1)C(=O)N(C)C(=O)N2Cc1ccc(S(C)(=O)=O)cc1 [Example 93, (R)-2-Fluoro-N-(3-methyl-1-(3-methyl-1-(4-(methylsulfonyl)benzyl)-2,4-dioxo-1,3,8-triazaspiro[4.5]decan-8-yl)-1-oxobutan-2-yl)-5-(trifluoromethyl)benzamide] | ≥ 1000 nM |
| CC(C)[C@@H](NC(=O)c1cc(C(F)(F)F)ccc1F)C(=O)N1CCC2(CC1)C(=O)N(C)C(=O)N2c1ccc(C(F)(F)F)cc1 [Example 186, (R)-2-Fluoro-N-(3-methy-1-(3-methyl-2,4-dioxo-1-(4-(trifluoromethyl)phenyl)-1,3,8-triazaspiro[4.5]decan-8-yl)-1-oxobutan-2-yl)-5-(trifluoromethyl)benzamide] | < 500 nM |
| CC(C)[C@@H](NC(=O)c1cc(C(F)(F)F)ccc1F)C(=O)N1CCC2(CC1)C(=O)N(C)C(=O)N2C(C)c1ccccc1 (stereo partly drawn) [Example 92, 2-Fluoro-N-((2R)-3-methyl-1-(3-methyl-2,4-dioxo-1-(1-phenylethyl)-1,3,8-triazaspiro[4.5]decan-8-yl)-1-oxobutan-2-yl)-5-(trifluoromethyl)benzamide] | 500 to 1000 nM |
| CC(C)[C@@H](NC(=O)c1cc(C(F)(F)F)ccc1F)C(=O)N1CCC2(CC1)C(=O)N(C)C(=O)N2c1ccc2[nH]nnc2c1 [Example 32, (R)—N-(1-(1-(1H-Benzo[d][1,2,3]triazol-5-yl)-3-methyl-2,4-dioxo-1,3,8-triazaspiro [4.5]decan-8-yl)-3-methyl-1-oxobutan-2-yl)-2-fluoro-5-(trifluoromethyl)benzamide] | < 500 nM |
| Cc1cccc(C(=O)N[C@@H](C(=O)N2CCC3(CC2)C(=O)N(C)CN3c2cccc(Cl)c2)C(C)C)c1 [Example 192, (R)—N-(1-(1-(3-Chlorophenyl)-3-methyl-4-oxo-1,3,8-triazaspiro[4.5]decan-8-yl)-3-methyl-1-oxobutan-2-yl)-3-methylbenzamide] | < 500 nM |
| CN1C(=O)N(c2ccc3[nH]ncc3c2)C2(CCN(C(=O)C(C)(C)NC(=O)c3cc(C(F)(F)F)ccc3F)CC2)C1=O [Example 74, N-(1-(1-(1H-Indazol-5-yl)-3-methyl-2,4-dioxo-1,3,8-triazaspiro[4.5]decan-8-yl)-2-methyl-1-oxopropan-2-yl)-2-fluoro-5-(trifluoromethyl)benzamide] | ≥ 1000 nM |
| CCc1ccc(F)c(C(=O)N[C@@H](C(=O)N2CCC3(CC2)C(=O)N(C)CN3c2ccc(=O)n(C)c2)C(C)C)c1 [Example 201, (R)-5-Ethyl-2-fluoro-N-(3-methyl-1-(3-methyl-1-(1-methyl-6-oxo-1,6-dihydropyridin-3-yl)-4-oxo-1,3,8-triazaspiro[4.5]decan-8-yl)-1-oxobutan-2-yl)benzamide] | < 500 nM |
| CC(C)[C@@H](NC(=O)c1cc(C2CC2)ccc1F)C(=O)N1CCC2(CC1)C(=O)N(C)CN2c1ccc(C(=O)O)cc1 [Example 153, (R)-4-(8-(2-(5-Cyclopropyl-2-fluorobenzamido)-3-methylbutanoyl)-3-methyl-4-oxo-1,3,8-triazaspiro[4.5]decan-1-yl)benzoic Acid] | < 500 nM |
| CCc1cc(F)cc(C(=O)N[C@@H](C(=O)N2CCC3(CC2)C(=O)N(C)C(=O)N3c2ccccc2)[C@H](C)OC)c1 [Example 38, 3-Ethyl-5-fluoro-N-((2R,3S)-3-methoxy-1-(3-methyl-2,4-dioxo-1-phenyl-1,3,8-triazaspiro[4.5]decan-8-yl)-1-oxobutan-2-yl)benzamide] | ≥ 1000 nM |
| CC(C)[C@@H](NC(=O)c1cc(C(F)(F)F)ccc1F)C(=O)N1CCC2(CC1)C(=O)N(C)C(=O)N2c1ccc(OCCO)cc1 [Example 84, (R)-2-Fluoro-N-(1-(1-(4-(2-hydroxyethoxy)phenyl)-3-methyl-2,4-dioxo-1,3,8-triazaspiro[4.5]decan-8-yl)-3-methyl-1-oxobutan-2-yl)-5-(trifluoromethyl)benzamide] | < 500 nM |
| CC(C)[C@@H](NC(=O)c1cc(OC(F)F)ccc1F)C(=O)N1CCC2(CC1)C(=O)N(C)C(=O)N2c1ccc(-c2nn[nH]n2)cc1 [Example 226, (R)—N-(1-(1-(4-(2H-Tetrazol-5-yl)phenyl)-3-methyl-2,4-dioxo-1,3,8-triazaspiro[4.5]decan-8-yl)-3-methyl-1-oxobutan-2-yl)-5-(difluoromethoxy)-2-fluorobenzamide] | < 500 nM |
| CCc1ccc(F)c(C(=O)N[C@@H](C(=O)N2CCC3(CC2)C(=O)N(CC#N)CN3c2ccccc2)C(C)C)c1 [Example 178, (R)—N-(1-(3-(Cyanomethyl)-4-oxo-1-phenyl-1,3,8-triazaspiro[4.5]decan-8-yl)-3-methyl-1-oxobutan-2-yl)-5-ethyl-2-fluorobenzamide] | < 500 nM |
| CCc1ccc(F)c(C(=O)N[C@@H](C(=O)N2CCC3(CC2)C(=O)N(C)C(=O)N3c2ccc(OC)cc2)[C@@H](C)OC)c1 [Example 40, 5-Ethyl-2-fluoro-N-((2R,3R)-3-methoxy-1-(1-(4-methoxyphenyl)-3-methyl-2,4-dioxo-1,3,8-triazaspiro[4.5]decan-8-yl)-1-oxobutan-2-yl)benzamide] | < 500 nM |
| COc1ccc(N2C(=O)N(C)C(=O)C23CCN(C(=O)[C@H](NC(=O)c2cc(C4CC4)ccc2F)C(C)C)CC3)cc1 [Example 45, (R)-5-Cyclopropyl-2-fluoro-N-(1-(1-(4-methoxyphenyl)-3-methyl-2,4-dioxo-1,3,8-triazaspiro[4.5]decan-8-yl)-3-methyl-1-oxobutan-2-yl)benzamide] | < 500 nM |
| Cc1cc(F)cc(C(=O)N[C@@H](C(=O)N2CCC3(CC2)C(=O)N(C)CN3c2ccccc2)C(C)C)c1 [Example 140, (R)-3-Fluoro-5-methyl-N-(3-methyl-1-(3-methyl-4-oxo-1-phenyl-1,3,8-triazaspiro[4.5]decan-8-yl)-1-oxobutan-2-yl)benzamide] | < 500 nM |
